Measurements published in US11753407B2, “Compounds for treating spinal muscular atrophy” (PTC Therapeutics, Inc., priority 2012, dated 2023).

Assays:
[1] = tested on: SMN2 minigene mRNA (SMN2-A minigene) in HEK293H cells; assay: SMN2 minigene mRNA splicing RT-qPCR assay in cultured cells; type: cell-based, human; conditions: Homo sapiens, HEK293-H; concentration increasing full length SMN2 mRNA 1.5-fold relative to vehicle-treated cells; HEK293H cells with SMN2-A minigene, 24 hours, 7-point concentration data; read-out: EC1.5x for production of full length SMN2 mRNA
Procedure, shortened: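 Cells are seeded, left to attach 4-6 h, then dosed with test compound across seven concentrations and incubated 24 h. Lysates undergo RT-qPCR with primers/probe specific to the exon 7-containing minigene transcript, co-amplified with GAPDH. Fold change over vehicle is calculated, and EC1.5× marks the 1.5-fold point.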

[2] = tested on: Smn protein in SMA patient fibroblast cells (GM03813); assay: Smn protein assay in cultured cells (SMN HTRF); type: cell-based, human; conditions: SMA patient fibroblast cells, 48 hours; for EC1.5x for Smn protein expression: 7-point concentration curve, SMN HTRF, concentration producing 1.5 times Smn protein vs DMSO vehicle control; for maximum fold (Fold) increase of Smn protein: 7-point concentration data, fold relative to vehicle control
Procedure, shortened: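 Patient-derived SMA fibroblasts are plated, given compound for 48 h, then lysed in RIPA buffer with protease inhibitors. Lysate Smn is detected by an anti-SMN d2/kryptate HTRF pair incubated overnight. The normalized ΔF is divided by the vehicle ΔF to give fold change, from which EC1.5× and maximum fold are taken.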

## Cc1nc2cc(-c3cc(=O)n4cc(N5CCN(C)CC5)ccc4n3)ccc2s1 [Compound 176, 2-(2-methyl-1,3-benzothiazol-5-yl)-7-(4-methylpiperazin-1-yl)-4H-pyrido[1,2-a]pyrimidin-4-one]
[1]
  EC (1.5-fold increase): 0.3 to 1 µM
[2]
  EC1.5x for Smn protein expression: * (An EC1.5× for Smn protein expression between >3 μM and ≤10 μM is indicated by one star (*))
  maximum fold (Fold) increase of Smn protein: *** (a fold increase between >1.35 and ≤1.5 is indicated by three stars (***))
other
  melting point: 214 to 218 °C

## Cc1nc2cc(-c3cc(=O)n4cc(N5CCCN(C)CC5)ccc4n3)ccc2s1 [Compound 177, 2-(2-methyl-1,3-benzothiazol-5-yl)-7-(4-methyl-1,4-diazepan-1-yl)-4H-pyrido[1,2-a]pyrimidin-4-one]
[1]
  EC (1.5-fold increase): 0.1 to 0.3 µM
[2]
  maximum fold (Fold) increase of Smn protein: *** (a fold increase between >1.35 and ≤1.5 is indicated by three stars (***))
other
  melting point: 165 to 170 °C

## Cc1nc2cc(-c3cc(=O)n4cc(N5CCN6CCC[C@H]6C5)ccc4n3)ccc2s1 [Compound 178, 7-[(8aS)-hexahydropyrrolo[1,2-a]pyrazin-2(1H)-yl]-2-(2-methyl-1,3-benzothiazol-5-yl)-4H-pyrido[1,2-a]pyrimidin-4-one]
[1]
  EC (1.5-fold increase): 0.3 to 1 µM
[2]
  maximum fold (Fold) increase of Smn protein: ** (a fold increase between >1.2 and ≤1.35 is indicated by two stars (**))
other
  melting point: 254 to 256 °C

## Cc1cn(-c2cc(=O)n3cc(N4CCN[C@@H](C)C4)ccc3n2)cn1 [Compound 180, 2-(4-methyl-1H-imidazol-1-yl)-7-[(3S)-3-methylpiperazin-1-yl]-4H-pyrido[1,2-a]pyrimidin-4-one]
[1]
  EC (1.5-fold increase): 1 to 3 µM
[2]
  EC1.5x for Smn protein expression: ** (an EC1.5× between >1 μM and ≤3 μM is indicated by two stars (**))
  maximum fold (Fold) increase of Smn protein: **** (a fold increase between >1.5 and ≤1.65 is indicated by four stars (****))
other
  melting point: 204 to 206 °C

## CNCCNc1ccc2nc(-c3ccc(OC)c(OC)c3)cc(=O)n2c1 [Compound 181, 2-(3,4-dimethoxyphenyl)-7-{[2-(methylamino)ethyl]amino}-4H-pyrido[1,2-a]pyrimidin-4-one]
[1]
  EC (1.5-fold increase): 1 to 3 µM
[2]
  maximum fold (Fold) increase of Smn protein: * (A maximum fold increase of ≤1.2 is indicated by one star (*))
other
  melting point: 135 to 138 °C

## COc1c(F)cc(-c2cc(=O)n3cc(N4CCNCC4)ccc3n2)cc1F [Compound 183, 2-(3,5-difluoro-4-methoxyphenyl)-7-(piperazin-1-yl)-4H-pyrido[1,2-a]pyrimidin-4-one]
[1]
  EC (1.5-fold increase): 1 to 3 µM
[2]
  maximum fold (Fold) increase of Smn protein: ** (a fold increase between >1.2 and ≤1.35 is indicated by two stars (**))
other
  melting point: 167 to 169 °C

## COc1c(F)cc(-c2cc(=O)n3cc(N4CCN[C@@H](C)C4)ccc3n2)cc1F [Compound 184, 2-(3,5-difluoro-4-methoxyphenyl)-7-[(3S)-3-methylpiperazin-1-yl]-4H-pyrido[1,2-a]pyrimidin-4-one]
[1]
  EC (1.5-fold increase): 1 to 3 µM
[2]
  maximum fold (Fold) increase of Smn protein: ** (a fold increase between >1.2 and ≤1.35 is indicated by two stars (**))
other
  melting point: 182 to 184 °C

## COc1ccc(-c2cc(=O)n3cc(N4CCC(N(C)C)CC4)ccc3n2)cc1F [Compound 185, 7-[4-(dimethylamino)piperidin-1-yl]-2-(3-fluoro-4-methoxyphenyl)-4H-pyrido[1,2-a]pyrimidin-4-one]
[1]
  EC (1.5-fold increase): < 0.1 µM
[2]
  maximum fold (Fold) increase of Smn protein: *** (a fold increase between >1.35 and ≤1.5 is indicated by three stars (***))
other
  melting point: 196 to 201 °C

## COc1ccc(-c2cc(=O)n3cc(C4=CCNCC4)ccc3n2)cc1F [Compound 186, 2-(3-fluoro-4-methoxyphenyl)-7-(1,2,3,6-tetrahydropyridin-4-yl)-4H-pyrido[1,2-a]pyrimidin-4-one]
[1]
  EC (1.5-fold increase): < 0.1 µM
[2]
  EC1.5x for Smn protein expression: *** (an EC1.5× between >0.3 μM and ≤1 μM is indicated by three stars (***))
  maximum fold (Fold) increase of Smn protein: **** (a fold increase between >1.5 and ≤1.65 is indicated by four stars (****))
other
  melting point: 182 to 184 °C

## C[C@H]1CN(c2ccc3nc(-c4cc(F)cc(Cl)c4)cc(=O)n3c2)CCN1 [Compound 189, 2-(3-chloro-5-fluorophenyl)-7-[(3S)-3-methylpiperazin-1-yl]-4H-pyrido[1,2-a]pyrimidin-4-one]
[1]
  EC (1.5-fold increase): 0.3 to 1 µM
[2]
  EC1.5x for Smn protein expression: *** (an EC1.5× between >0.3 μM and ≤1 μM is indicated by three stars (***))
  maximum fold (Fold) increase of Smn protein: **** (a fold increase between >1.5 and ≤1.65 is indicated by four stars (****))
other
  melting point: 188 to 190 °C

## O=c1cc(-c2cc(F)cc(Cl)c2)nc2ccc(N3CCNCC3)cn12 [Compound 190, 2-(3-chloro-5-fluorophenyl)-7-(piperazin-1-yl)-4H-pyrido[1,2-a]pyrimidin-4-one]
[1]
  EC (1.5-fold increase): 0.3 to 1 µM
[2]
  EC1.5x for Smn protein expression: ** (an EC1.5× between >1 μM and ≤3 μM is indicated by two stars (**))
  maximum fold (Fold) increase of Smn protein: **** (a fold increase between >1.5 and ≤1.65 is indicated by four stars (****))
other
  melting point: 180 to 184 °C

## Cc1nc2ccc(-c3cc(=O)n4cc(N5CCN[C@H](C)C5)ccc4n3)cc2o1 [Compound 193, 2-(2-methyl-1,3-benzoxazol-6-yl)-7-[(3R)-3-methylpiperazin-1-yl]-4H-pyrido[1,2-a]pyrimidin-4-one]
[1]
  EC (1.5-fold increase): < 0.1 µM
[2]
  EC1.5x for Smn protein expression: **** (an EC1.5x≤0.3 μM is indicated by four stars (****))
  maximum fold (Fold) increase of Smn protein: ***** (a fold increase >1.65 is indicated by five stars (*****))
other
  melting point: 175 to 177 °C

## Cc1nc2ccc(-c3cc(=O)n4cc(N5CCNC(C)(C)C5)ccc4n3)cc2o1 [Compound 194, 7-(3,3-dimethylpiperazin-1-yl)-2-(2-methyl-1,3-benzoxazol-6-yl)-4H-pyrido[1,2-a]pyrimidin-4-one]
[1]
  EC (1.5-fold increase): < 0.1 µM
[2]
  EC1.5x for Smn protein expression: **** (an EC1.5x≤0.3 μM is indicated by four stars (****))
  maximum fold (Fold) increase of Smn protein: ***** (a fold increase >1.65 is indicated by five stars (*****))
other
  melting point: 160 to 162 °C

## Cc1nc2ccc(-c3cc(=O)n4cc(N5CCCNCC5)ccc4n3)cc2o1 [Compound 195, 7-(1,4-diazepan-1-yl)-2-(2-methyl-1,3-benzoxazol-6-yl)-4H-pyrido[1,2-a]pyrimidin-4-one]
[1]
  EC (1.5-fold increase): < 0.1 µM
[2]
  EC1.5x for Smn protein expression: *** (an EC1.5× between >0.3 μM and ≤1 μM is indicated by three stars (***))
  maximum fold (Fold) increase of Smn protein: **** (a fold increase between >1.5 and ≤1.65 is indicated by four stars (****))
other
  melting point: 134 to 137 °C

## Cc1nc2ccc(-c3cc(=O)n4cc(N5CCCN(C)CC5)ccc4n3)cc2o1 [Compound 196, 2-(2-methyl-1,3-benzoxazol-6-yl)-7-(4-methyl-1,4-diazepan-1-yl)-4H-pyrido[1,2-a]pyrimidin-4-one]
[1]
  EC (1.5-fold increase): < 0.1 µM
[2]
  EC1.5x for Smn protein expression: **** (an EC1.5x≤0.3 μM is indicated by four stars (****))
  maximum fold (Fold) increase of Smn protein: **** (a fold increase between >1.5 and ≤1.65 is indicated by four stars (****))
other
  melting point: 146 to 150 °C
